Measurements reported in patent publication US9359313B2, “Use of metformin in combination with a glucokinase activator and compositions comprising metformin and a glucokinase activator” (vTv Therapeutics LLC, priority 2010, dated 2016).

Experiments:
diabetic ob/ob mice = assay: Treatment of diabetic ob/ob mice with UD1 and metformin: post-prandial glucose; type: in vivo; details: 75 mg/kg UD1, 100 mg/kg Met; for mean post-prandial glucose level / mean glucose level: n=10; for mean glucose level: time 0 hours (baseline)
Experimental: Before treatment, the mice were assigned to four groups based on baseline glucose levels and body weight (n=10 for each group). Each group of mice was dosed with one of the following: (1) a control substance; (2) 75 mg/kg UD1; (3) 100 mg/kg metformin (Met); or (4) 75 mg/kg UD1 and 100 mg/kg metformin (Met). Post-prandial glucose was measured at time points of 1, 3, 5, 7, and 9 hours following dosing.

[1] = Pharmacokinetic evaluation of three oral UD1 dosage forms in male beagle dogs; type: in vivo; details: 100 mg of UD1, fasted, mean of 3 dogs
Experimental: For all nine dogs, 100 mg of UD1 was administered orally. Each dog was dosed in a fasted state, where food was provided 4 hours following dosing. Blood samples were taken for pharmacokinetic (PK) evaluation at the following time intervals following dosing: 0.5, 1.0, 2.0, 4.0, 6.0, 8.0, 12.0, and 24.0 hours.

SMILES	change in glucose levels relative to control, AUC 0-9 hrs (diabetic ob/ob mice)	mean post-prandial glucose level (diabetic ob/ob mice; 1 hour following dosing)	mean post-prandial glucose level (diabetic ob/ob mice; 3 hours following dosing)	mean post-prandial glucose level (diabetic ob/ob mice; 5 hours following dosing)	mean post-prandial glucose level (diabetic ob/ob mice; 7 hours following dosing)	mean post-prandial glucose level (diabetic ob/ob mice; 9 hours following dosing)	mean glucose level (diabetic ob/ob mice)	AUC0-∞ [1]	Cmax [1]
CN(C)C(=N)NC(=N)N [Met, N,N-dimethylimidodicarbonimidic diamide, reference compound]	-39 mg·h/dL	357 mg/dL	334 mg/dL	459 mg/dL	501 mg/dL	484 mg/dL	389 mg/dL	–	–
CCCO[C@H]1CC[C@H](N(C(=O)Nc2ncc(SCC(=O)O)s2)C2CCCCC2)CC1.CN(C)C(=N)NC(=N)N [Metformin Salt, 1,1-dimethylbiguanide salt of {2-[3-cyclohexyl-3-(trans-4-propoxy-cyclohexyl)-ureido]-thiazol-5-ylsulfanyl}-acetic acid]	–	–	–	–	–	–	–	15802 ng·h/mL	6985 ng/mL
CCCO[C@H]1CC[C@H](N(C(=O)Nc2ncc(SCC(=O)O)s2)C2CCCCC2)CC1 [UD1, {2-[3-cyclohexyl-3-(trans-4-propoxy-cyclohexyl)-ureido]-thiazol-5-ylsulfanyl}-acetic acid]	-748 mg·h/dL	321 mg/dL	254 mg/dL	376 mg/dL	382 mg/dL	394 mg/dL	391 mg/dL	–	–
